Test results: patent US9809598B2 (Merck Patent GmbH, priority 2014, dated 2017)
Converted amounts (≈) assume the structure as drawn.

Tests used:
[1] = molecular target: Tankyrase; conditions: as reported in the cited publication / patent application; read-out: cellular assay: EC50; cited from earlier work
[2] = molecular target: T1, TNKS1 (Homo sapiens, UniProt O95271); test: TNKS1 activity ELISA (autoparsylation assay); type: biochemical; conditions: GST-tagged Tnks-1 (1023-1327 aa)
T1 construct: GST-tagged Tnks-1 (1023-1327 aa, prepared in-house); made in house
In short: (§1)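 GST-tagged TNKS1 or TNKS2 captured on glutathione plates and allowed to auto-PARsylate with biotinylated NAD with or without compound. Biotin-ADP-ribosylated enzyme detected by streptavidin-HRP and luminescence; IC50 relative to inhibitor-free reaction.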

[3] = molecular target: T2, PARP-1 (Homo sapiens, UniProt P09874); test: PARP-1 autoparsylation assay (HTRF); type: biochemical; conditions: His-tagged Parp-1, autoparsylation HTRF
T2 construct: purchased Enzo Life Sciences GmbH, Lörrach, Germany
In short: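 His-tagged enzyme auto-modifies itself using biotinylated NAD/NAD; product detected by TR-FRET between cryptate anti-His antibody and Xlent-streptavidin, as emission ratio.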

[4] = molecular target: T3, TNKS2 (Homo sapiens, UniProt Q9H2K2); test: TNKS2 activity ELISA (autoparsylation assay); type: biochemical; conditions: GST-tagged Tnks-2 (873-1166 aa); read-out: IC50 [M] TNKS2 ELISA
T3 construct: GST-tagged Tnks-2 (873-1166 aa, prepared in-house); made in house
In short: as §1

[5] = Microsomal stability (intrinsic clearance), mouse liver microsomes; type: in vitro ADME; conditions: pH 7.4
Description: (§2) Test Method Microsomal Stability (Intrinsic Clearance)
(§3) A microsomal stability assay is used to measure in vitro clearance (Clint). The assay involves measuring the rate of disappearance of a compound due to its intrinsic attitude to be metabolized (“intrinsic” meaning that the disappearance is not affected by other properties like permeability, binding etc. that play a role when quantifying in vivo clearance). The microsomal stability (intrinsic clearance, Clint) and thus metabolic stability is generally given as μl/min/mg protein. It can be visualized as the volume of solution that 1 mg of microsomes is able to clear of the compound in one minute.
(§4) A Tecan Genesis workstation (RSP 150/8) was used for to perform the microsomal incubations. Analysis was carried out using a Waters ACQUITY UPLC system coupled to an ABSciex API3000 mass spectrometer. Data analysis was performed using Assay Explorer (Symyx).
(§5) Chemicals • Potassium phosphate buffer: 0.05 M potassium phosphate buffer pH 7.4 containing 1 mM MgCl2 • NADPH (nicotinamide adenine dinucleotide phosphate): 22.5 mg NADPH-Na4 in 1.8 ml potassium phosphate buffer • Acetonitrile: 50 Vol % acetonitrile (1 volume acetonitrile, 1 volume water) • DMSO: 20 Vol % DMSO in water • Stock solution of 20 mg/ml human or mouse liver microsomes (protein)/ml in phosphate buffer
(§6) Stock solution of 10 mM compound in 100% DMSO

[6] = system: Tankyrases; conditions: read-out: EC50 [M] TNKS cellular assay; DLD1 cells, 24 hours, Axin2 increase
Description: Measurement of Cellular Inhibition of Tankyrase
Cells of the colon carcinoma cell line DLD1 are plated in 96 well plates with 1.5×10^4 cells per well. Next day, cells are treated with a serial dilution of test compound in seven steps as triplicates with a final DMSO concentration of 0.3%. […] The amount of isolated Axin2 protein is determined in a Luminex^200 machine (Luminex Corporation) according to the manufacturer's instruction by counting 100 events per well. […] As controls cells are treated with solvent alone (neutral control) and with a Tankyrase reference inhibitor IWR-2 (3E−06 M) which refers as control for maximum increase of Axin2. For analysis, the obtained data are normalized against the untreated solvent control and fitted for determination of the EC50 values using the Assay Explorer software (Accelrys).

[7] = Solubility pH 7.4; type: physicochemical; conditions: pH 7.4, aqueous buffer
[8] = Microsomal stability (intrinsic clearance), human liver microsomes; type: in vitro ADME; conditions: pH 7.4
Description: as §2, §3, §4, §5, §6

[9] = system: DLD-1-cancer cells; conditions: Huang et al., 2009; Nature; cited from earlier work

T2 sequence (P09874 whole entry): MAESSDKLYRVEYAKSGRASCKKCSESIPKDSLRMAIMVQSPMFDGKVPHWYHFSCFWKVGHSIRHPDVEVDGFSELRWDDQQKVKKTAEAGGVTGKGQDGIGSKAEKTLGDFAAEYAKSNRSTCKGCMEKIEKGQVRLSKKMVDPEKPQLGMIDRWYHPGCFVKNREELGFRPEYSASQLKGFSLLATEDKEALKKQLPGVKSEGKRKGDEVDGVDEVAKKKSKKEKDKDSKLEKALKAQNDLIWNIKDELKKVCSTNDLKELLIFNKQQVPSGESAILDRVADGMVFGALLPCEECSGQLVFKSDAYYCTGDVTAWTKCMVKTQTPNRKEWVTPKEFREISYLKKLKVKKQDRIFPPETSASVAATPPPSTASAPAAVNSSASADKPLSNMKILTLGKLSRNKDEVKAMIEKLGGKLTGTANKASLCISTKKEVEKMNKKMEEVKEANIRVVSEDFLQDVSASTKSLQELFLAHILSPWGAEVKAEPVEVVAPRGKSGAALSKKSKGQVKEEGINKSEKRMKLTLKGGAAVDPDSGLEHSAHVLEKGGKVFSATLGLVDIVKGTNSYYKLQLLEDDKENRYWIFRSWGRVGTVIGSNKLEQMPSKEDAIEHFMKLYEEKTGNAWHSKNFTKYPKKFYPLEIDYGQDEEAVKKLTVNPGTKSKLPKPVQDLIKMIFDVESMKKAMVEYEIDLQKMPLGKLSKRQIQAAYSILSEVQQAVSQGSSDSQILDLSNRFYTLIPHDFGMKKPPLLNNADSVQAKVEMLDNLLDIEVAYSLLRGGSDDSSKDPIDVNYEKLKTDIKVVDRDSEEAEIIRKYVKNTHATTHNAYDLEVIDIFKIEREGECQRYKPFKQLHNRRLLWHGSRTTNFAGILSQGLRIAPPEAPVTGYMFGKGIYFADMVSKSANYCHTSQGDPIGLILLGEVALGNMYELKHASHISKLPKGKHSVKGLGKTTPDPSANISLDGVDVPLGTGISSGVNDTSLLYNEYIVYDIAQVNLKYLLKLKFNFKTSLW
T3 sequence (Q9H2K2 873-1166): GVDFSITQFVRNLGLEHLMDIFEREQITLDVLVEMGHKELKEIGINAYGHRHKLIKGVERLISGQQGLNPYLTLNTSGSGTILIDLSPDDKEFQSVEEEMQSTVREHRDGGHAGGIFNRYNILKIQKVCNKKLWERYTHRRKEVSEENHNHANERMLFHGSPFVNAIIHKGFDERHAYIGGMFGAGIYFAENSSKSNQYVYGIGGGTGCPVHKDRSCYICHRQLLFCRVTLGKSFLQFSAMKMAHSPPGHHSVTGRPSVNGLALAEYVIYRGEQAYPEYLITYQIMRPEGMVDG
T1 sequence (O95271 1023-1327): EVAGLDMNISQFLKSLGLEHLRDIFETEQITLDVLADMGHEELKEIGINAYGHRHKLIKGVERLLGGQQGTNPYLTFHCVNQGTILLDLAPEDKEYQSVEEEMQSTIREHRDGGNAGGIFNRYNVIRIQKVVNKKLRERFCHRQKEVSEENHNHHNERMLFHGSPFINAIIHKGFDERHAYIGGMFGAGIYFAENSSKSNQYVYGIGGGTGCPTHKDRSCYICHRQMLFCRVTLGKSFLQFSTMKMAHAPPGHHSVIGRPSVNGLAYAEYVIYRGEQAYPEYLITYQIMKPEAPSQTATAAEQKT

| SMILES | EC50 [1] [nM] | IC50 [2] [nM] | IC50 [3] [nM] | IC50 [4] [M] | microsomal CLint [5] [µL/min/mg] | EC50 [6] [M] | solubility [7] [µg/mL] | microsomal CLint [8] [µL/min/mg] | growth of DLD-1-cancer cells [9] |
| --- | --- | --- | --- | --- | --- | --- | --- | --- | --- |
| COc1ccc(C(=O)C2CCN(CC(=O)N(Cc3nc4c(c(=O)[nH]3)COCC4)CC3CC3)CC2)cc1 | 35 |  |  |  |  |  |  |  |  |
| Cn1ncc2c(=O)[nH]c(CCCC(=O)N3CCC(c4cnc(N)c(-c5ncccn5)c4)CC3)nc21 [Compound C45, 6-[4-(6-Amino-5-pyrimidin-2-yl-3′,4′,5′,6′-tetrahydro-2′H-[3,4′]bipyridinyl-1′-yl)-4-oxo-butyl]-1-methyl-1,5-dihydro-pyrazolo[3,4-d]pyrimidin-4-one] |  | 0.26 | 3800 | 1.9e-10 | 62 | 4.9e-10 | 42 (≈ 88.7 µM) | 25 |  |
| COc1ccc(C(=O)C2CCN(C(=O)CCCc3nc4c(cnn4C)c(=O)[nH]3)CC2)cc1F [Compound C42, 6-{4-[4-(3-Fluoro-4-methoxy-benzoyl)-piperidin-1-yl]-4-oxo-butyl}-1-methyl-1,5-dihydro-pyrazolo[3,4-d]pyrimidin-4-one] |  | 0.12 | 12000 | < 1e-10 | 51 | 4.8e-09 | 158 (≈ 347 µM) | 16 |  |
| Cn1ncc2c(=O)[nH]c(CCCC(=O)N3CCC(C(=O)c4ccc(F)cc4)CC3)nc21 [Compound C48, 6-{4-[4-(4-Fluoro-benzoyl)-piperidin-1-yl]-4-oxo-butyl}-1-methyl-1,5-dihydro-pyrazolo[3,4-d]pyrimidin-4-one] |  | 0.45 | 7300 | 3.1e-10 | 59 | 4.4e-09 | 206 (≈ 484 µM) | 20 |  |
| COc1ccccc1NC(=O)c1ccc(NC(=O)CCc2nc3ccccc3c(=O)[nH]2)cc1 | 320 |  |  |  |  |  |  |  |  |
| COc1ccc(C(=O)C2CCN(C(=O)CCCc3nc4c(c(=O)[nH]3)COCC4)CC2)cc1 [Compound C52, 2-{4-[4-(4-Methoxy-benzoyl)-piperidin-1-yl]-4-oxo-butyl}-3,5,7,8-tetrahydro-pyrano[4,3-d]pyrimidin-4-one] |  | 1.4 | 1900 | 4.8e-10 | < 10 | 4.6e-09 | 868 (≈ 1970 µM) | < 10 |  |
| COc1ccc(C(=O)C2CCN(C(=O)CCCc3nc4c(c(=O)[nH]3)COCC4)CC2)cc1C [Compound C199, 2-{4-[4-(4-Methoxy-3-methyl-benzoyl)-piperidin-1-yl]-4-oxo-butyl}-3,5,7,8-tetrahydro-pyrano[4,3-d]pyrimidin-4-one] |  | 0.27 | 2200 | 2.2e-10 | 44 | 3.3e-09 | 585 (≈ 1290 µM) | 12 |  |
| Cn1cc(C(=O)C2CCN(C(=O)CCCc3cn4c(F)ccc4c(=O)[nH]3)CC2)cn1 [Compound C208, 6-Fluoro-3-{4-[4-(1-methyl-1H-pyrazole-4-carbonyl)-piperidin-1-yl]-4-oxo-butyl}-2H-pyrrolo[1,2-a]pyrazin-1-one] |  | 0.25 | 6000 | 2.3e-10 | 26 | 5.2e-09 | 101 (≈ 244 µM) | < 10 |  |
| Cn1cc(C(=O)C2CCN(C(=O)CCCc3nn4cc(F)cc4c(=O)[nH]3)CC2)cn1 [Compound C179, 6-Fluoro-2-{4-[4-(1-methyl-1H-pyrazole-4-carbonyl)-piperidin-1-yl]-4-oxo-butyl}-3H-pyrrolo[2,1-f][1,2,4]triazin-4-one] |  | 0.52 | 11000 | 1.1e-09 | 29 | 1.7e-08 | 58 (≈ 140 µM) | 11 |  |
| Oc1nc(-c2ccc(C(F)(F)F)cc2)nc2c1CSCC2 [XAV939] |  |  |  |  |  |  |  |  | inhibits growth |
| Cc1ccc2c(=O)[nH]c(CCCC(=O)N3CCC(C(=O)c4cnn(C)c4)CC3)nn12 [Compound C157, 7-Methyl-2-{4-[4-(1-methyl-1H-pyrazole-4-carbonyl)-piperidin-1-yl]-4-oxo-butyl}-3H-pyrrolo[2,1-f][1,2,4]triazin-4-one] |  | 0.31 | 860 | 2.6e-10 | 46 | 2.7e-09 | 272 (≈ 663 µM) | 22 |  |
| CCn1cc(C(=O)C2CCN(C(=O)CCCc3nn4cccc4c(=O)[nH]3)CC2)cn1 [Compound C214, 2-{4-[4-(1-Ethyl-1H-pyrazole-4-carbonyl)-piperidin-1-yl]-4-oxo-butyl}-3H-pyrrolo[2,1-f][1,2,4]triazin-4-one] |  | 2.2 | 8500 | 1.3e-09 | 41 | 1.5e-08 | 394 (≈ 960 µM) | 21 |  |
| COc1ccc(C(=O)C2CCN(C(=O)CCCc3nc4c(cnn4C)c(=O)[nH]3)CC2)cc1 [Compound C41, 6-{4-[4-(4-Methoxy-benzoyl)-piperidin-1-yl]-4-oxo-butyl}-1-methyl-1,5-dihydro-pyrazolo[3,4-d]pyrimidin-4-one] |  | 0.18 | 6300 | 1.3e-10 | 36 | 1.8e-09 | 55 (≈ 126 µM) | 25 |  |
